Assays:
[1] = molecular target: T1, wt human JAK1, catalytic site (Homo sapiens, UniProt P23458); test: HTRF KinEASE assay, JAK1; format: biochemical; details: 2.5 μM ATP; read-out: IC50, Activity Toward JAK1
T1 construct: wt human JAK1, catalytic site; purchased ThermoFisher
Method: Basic protocol for HTRF KinEASE assay (Cisbio/FRA) inhibitor studies involved two steps: • Enzymatic step: Addition of 4 μL of test compound in corresponding DMSO dilutions, 4 μL of kinase/substrate mixture, 2 μL of ATP into 384 well small volume plates. Incubation for at least 30 minutes at room temperature. • Detection step: Addition of 5 μL antibody and 5 μL streptavidin-XL665, read plate after 60 minutes. Data analysis of emission ratios according KinEASE assay protocol.
(§1) Kinase and assay components were adjusted to final concentrations according to kit protocol. For TYK2: 2 nM wt human TYK2, catalytic site (SignalChem/CAN), 1 μM HTRF KinEASE-TK Substrate-biotin, 1 μM ATP in 1× Kinase Buffer. […] For JAK2: 1 nM wt human JAK2, catalytic site (SignalChem/CAN), 1 μM HTRF KinEASE-TK Substrate-biotin, 100 μM ATP in 1× Kinase Buffer.
as §1

[2] = molecular target: T2, wt human TYK2, catalytic site (Homo sapiens, UniProt P29597); test: HTRF KinEASE assay, TYK2; format: biochemical; details: 1 μM ATP; read-out: IC50, Activity Toward TYK2
T2 construct: wt human TYK2, catalytic site; purchased SignalChem
T2 sequence (P29597 897-1176 limits assumed): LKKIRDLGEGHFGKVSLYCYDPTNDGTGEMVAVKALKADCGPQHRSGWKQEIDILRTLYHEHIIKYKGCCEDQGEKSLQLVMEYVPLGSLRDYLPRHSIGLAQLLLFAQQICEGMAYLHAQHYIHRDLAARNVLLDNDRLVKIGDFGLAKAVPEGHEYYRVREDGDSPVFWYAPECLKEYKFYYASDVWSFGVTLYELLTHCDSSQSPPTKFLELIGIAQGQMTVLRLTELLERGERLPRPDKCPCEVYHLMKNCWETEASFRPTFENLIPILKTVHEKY
Method in brief: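 HTRF KinEASE-TK readout with 1 μM biotinylated TK substrate in 1× kinase buffer, ≥30 min at room temperature, then antibody/streptavidin-XL665 detection for 60 min. TYK2 at 2 nM with 1 μM ATP; JAK2 at 1 nM with 100 μM ATP. Analysis uses emission ratios.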

T1 sequence (P23458 875-1153 limits assumed): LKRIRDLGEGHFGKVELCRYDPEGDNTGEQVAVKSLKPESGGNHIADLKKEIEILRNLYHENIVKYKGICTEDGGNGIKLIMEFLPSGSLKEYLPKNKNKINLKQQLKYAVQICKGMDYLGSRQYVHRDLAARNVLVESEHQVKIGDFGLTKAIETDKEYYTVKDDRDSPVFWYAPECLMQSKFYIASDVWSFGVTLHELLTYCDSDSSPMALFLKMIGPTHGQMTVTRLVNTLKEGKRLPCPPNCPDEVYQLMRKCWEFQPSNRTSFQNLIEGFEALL

Structure (SMILES)	IC50 [1] [nM]	IC50 [2] [nM]
NC(=O)c1nn(-c2c(Cl)cccc2Cl)nc1Nc1ccc(N2CCOCC2)cn1 [compound 143, 2-(2,6-dichlorophenyl)-5-((5-morpholinopyridin-2-yl)amino)-2H-1,2,3-triazole-4-carboxamide]	100 to 1000	100 to 1000
Cn1cc(C(F)(F)F)nc1-c1ccc(Nc2nn(-c3c(Cl)cccc3Cl)nc2C(N)=O)nc1 [compound 144, 2-(2,6-dichlorophenyl)-5-((5-(1-methyl-4-(trifluoromethyl)-1H-imidazol-2-yl)pyridin-2-yl)amino)-2H-1,2,3-triazole-4-carboxamide]	10 to 100	10 to 100
NC(=O)c1nn(-c2c(Cl)cc(F)cc2Cl)nc1Nc1ccc(C(=O)N2CC[C@@H](F)C2)cc1 [compound 146, (R)-2-(2,6-dichloro-4-fluorophenyl)-5-((4-(3-fluoropyrrolidine-1-carbonyl)phenyl)amino)-2H-1,2,3-triazole-4-carboxamide]	< 10	10 to 100
CN(C)C1CCN(C(=O)c2ccc(Nc3nn(-c4c(Cl)cccc4Cl)nc3C(N)=O)nc2)CC1 [compound 149, 2-(2,6-dichlorophenyl)-5-((5-(4-(dimethylamino)piperidine-1-carbonyl)pyridin-2-yl)amino)-2H-1,2,3-triazole-4-carboxamide]	< 10	10 to 100
CN1CCCN(C(=O)c2ccc(Nc3nn(-c4c(Cl)cccc4Cl)nc3C(N)=O)nc2)CC1 [compound 150, 2-(2,6-dichlorophenyl)-5-((5-(4-methyl-1,4-diazepane-1-carbonyl)pyridin-2-yl)amino)-2H-1,2,3-triazole-4-carboxamide]	10 to 100	10 to 100
NC(=O)c1nn(-c2c(Cl)cccc2Cl)nc1Nc1ccc(CC(=O)N2CCOCC2)nc1 [compound 151, 2-(2,6-dichlorophenyl)-5-((6-(2-morpholino-2-oxoethyl)pyridin-3-yl)amino)-2H-1,2,3-triazole-4-carboxamide]	10 to 100	100 to 1000
NC(=O)c1nn(-c2c(Cl)cccc2Cl)nc1Nc1ccc(CC(=O)N2CC(F)C2)nc1 [compound 152, 2-(2,6-dichlorophenyl)-5-((6-(2-(3-fluoroazetidin-1-yl)-2-oxoethyl)pyridin-3-yl)amino)-2H-1,2,3-triazole-4-carboxamide]	10 to 100	100 to 1000
N#CC1CN(C(=O)c2ccc(Nc3nn(-c4c(Cl)cccc4Cl)nc3C(N)=O)nc2)C1 [compound 153, 5-((5-(3-cyanoazetidine-1-carbonyl)pyridin-2-yl)amino)-2-(2,6-dichlorophenyl)-2H-1,2,3-triazole-4-carboxamide]	10 to 100	10 to 100
NC(=O)c1nn(-c2c(Cl)cccc2Cl)nc1Nc1ccc(C(=O)N2CC(O)C2)cn1 [compound 154, 2-(2,6-dichlorophenyl)-5-((5-(3-hydroxyazetidine-1-carbonyl)pyridin-2-yl)amino)-2H-1,2,3-triazole-4-carboxamide]	10 to 100	10 to 100
Cc1ncnn1-c1ccc(Nc2nn(-c3c(Cl)cccc3Cl)nc2C(N)=O)nc1 [compound 156, 2-(2,6-dichlorophenyl)-5-((5-(5-methyl-1H-1,2,4-triazol-1-yl)pyridin-2-yl)amino)-2H-1,2,3-triazole-4-carboxamide]	10 to 100	10 to 100
NC(=O)c1nn(-c2c(Cl)cccc2Cl)nc1Nc1ccc(-n2nncc2C(F)(F)F)cn1 [compound 157, 2-(2,6-dichlorophenyl)-5-((5-(5-(trifluoromethyl)-1H-1,2,3-triazol-1-yl)pyridin-2-yl)amino)-2H-1,2,3-triazole-4-carboxamide]	10 to 100	100 to 1000
Cn1nnnc1-c1ccc(Nc2nn(-c3c(Cl)cccc3Cl)nc2C(N)=O)nc1 [compound 158, 2-(2,6-dichlorophenyl)-5-((5-(1-methyl-1H-tetrazol-5-yl)pyridin-2-yl)amino)-2H-1,2,3-triazole-4-carboxamide]	10 to 100	10 to 100
NC(=O)c1nn(-c2c(Cl)cccc2Cl)nc1Nc1ccc(C(=O)N2CCS(=O)(=O)CC2)cn1 [compound 160, 2-(2,6-dichlorophenyl)-5-((5-(1,1-dioxidothiomorpholine-4-carbonyl)pyridin-2-yl)amino)-2H-1,2,3-triazole-4-carboxamide]	10 to 100	< 10
Cc1cncc2nnc(-c3ccc(Nc4nn(-c5c(Cl)cccc5Cl)nc4C(N)=O)cn3)n12 [compound 161, 2-(2,6-dichlorophenyl)-5-((6-(5-methyl-[1,2,4]triazolo[4,3-a]pyrazin-3-yl)pyridin-3-yl)amino)-2H-1,2,3-triazole-4-carboxamide]	10 to 100	10 to 100
CC1(C)CN(C(=O)c2ccc(Nc3nn(-c4c(Cl)cccc4Cl)nc3C(N)=O)nc2)C1 [compound 165, 2-(2,6-dichlorophenyl)-5-((5-(3,3-dimethylazetidine-1-carbonyl)pyridin-2-yl)amino)-2H-1,2,3-triazole-4-carboxamide]	100 to 1000	10 to 100
CC1(C)CN(C(=O)c2ccc(Nc3nn(-c4c(Cl)cccc4Cl)nc3C(N)=O)cc2)C1 [compound 166, 2-(2,6-dichlorophenyl)-5-((4-(3,3-dimethylazetidine-1-carbonyl)phenyl)amino)-2H-1,2,3-triazole-4-carboxamide]	< 10	10 to 100
NC(=O)c1nn(-c2c(Cl)cccc2Cl)nc1Nc1cnn(CC(=O)N2CCOCC2)c1 [compound 168, 2-(2,6-dichlorophenyl)-5-((1-(2-morpholino-2-oxoethyl)-1H-pyrazol-4-yl)amino)-2H-1,2,3-triazole-4-carboxamide]	10 to 100	10 to 100
NC(=O)c1nn(-c2c(Cl)cccc2Cl)nc1Nc1ccc(C(=O)N2CCSCC2)cc1 [compound 170, 2-(2,6-dichlorophenyl)-5-((4-(thiomorpholine-4-carbonyl)phenyl)amino)-2H-1,2,3-triazole-4-carboxamide]	< 10	< 10
NC(=O)c1nn(-c2c(Cl)cccc2Cl)nc1Nc1cnn(CC(=O)N2CCS(=O)(=O)CC2)c1 [compound 174, 2-(2,6-dichlorophenyl)-5-((1-(2-(1,1-dioxidothiomorpholino)-2-oxoethyl)-1H-pyrazol-4-yl)amino)-2H-1,2,3-triazole-4-carboxamide]	< 10	10 to 100
NC(=O)c1nn(-c2c(Cl)cc(F)cc2Cl)nc1Nc1ccc(C(=O)N2CCS(=O)(=O)CC2)cc1 [compound 175, 2-(2,6-dichloro-4-fluorophenyl)-5-((4-(1,1-dioxidothiomorpholine-4-carbonyl)phenyl)amino)-2H-1,2,3-triazole-4-carboxamide]	< 10	< 10
COc1cc(Cl)c(-n2nc(Nc3ccc(C(=O)N4CCSCC4)cc3)c(C(N)=O)n2)c(Cl)c1 [compound 176, 2-(2,6-dichloro-4-methoxyphenyl)-5-((4-(thiomorpholine-4-carbonyl)phenyl)amino)-2H-1,2,3-triazole-4-carboxamide]	10 to 100	100 to 1000
NC(=O)c1nn(-c2c(Cl)cc(F)cc2Cl)nc1Nc1ccc(C(=O)N2CCSCC2)cc1 [compound 177, 2-(2,6-dichloro-4-fluorophenyl)-5-((4-(thiomorpholine-4-carbonyl)phenyl)amino)-2H-1,2,3-triazole-4-carboxamide]	< 10	10 to 100

Source: US20230373985A1 (Origenis Gmbh, priority 2020, published 2023)
